# Measurements: BindingDB's records for doi:10.1016/j.bmcl.2015.12.061 (Auburn University, 2016)
# Target: S-adenosylhomocysteine hydrolase (Homo sapiens)
# Test: Inhibition of S-adenosylhomocysteine hydrolase (unknown origin)
row,IC50 [nM],SMILES
1,2.7,Nc1ncc(Br)c2c1ncn2[C@@H]1C=C(CO)[C@@H](O)[C@H]1O
2,10000,Nc1ncc(Br)c2c1ncn2C1=C[C@@H](CO)[C@H](O)[C@@H]1O
3,13,Nc1ncc(Br)c2c1ncn2C1=C[C@H](CO)[C@@H](O)[C@H]1O
